From patent US10662204B2 (PFIZER INC., priority 2018, dated 2020)

How the values were obtained:
KRAS G12C = KRAS G12C (Homo sapiens, UniProt P01116, G12C); assay: Cell Activity Assay: accumulation of GDP-bound KRAS G12C in MIAPaCa-2 cells (Raf-1 RBD capture, MSD readout); format: cell-based; set-up: endogenous in cells; host or cells: MIAPaCa-2; details: 6 hours, assay limit is 30.00
Method: Compounds presented in the present invention lead to the accumulation of the GDP bound Ras upon treatment of human cancer cell line.
The accumulation of the GDP-bound KRAS G12C in cellular environment was measured based on the principle that KRAS G12C only binds to its downstream kinase; Raf-1 (MAP Kinase Kinase Kinase), when in its active-GTP bound state. In this state, Ras binded to a domain of Raf-1 kinase referred to as the Ras Binding Domain (RBD).
MIAPaCa-2 cells were grown in RPMI 1640 medium (Gibco 11875) supplemented with 10% fetal bovine serum and 1% penicillin/streptomycin. Cells were seeded in 96-well tissue culture plates at a density of 30,000 cells/well and allowed to attach for 16-24 hours. Test compounds were prepared as a 10 mM stock in DMSO and serially diluted in 100% DMSO using a 3-fold dilution scheme. An intermediate 5× concentrated plate in complete growth medium was made and 25 μl/well was added to the 100 μl of cells for a final concentration of 0.3% DMSO. Each concentration of exemplary compound was tested in duplicate. The negative control wells were cells with control inhibitor at 10 μM, and the positive control wells were cells without drugs, DMSO only. Plates were incubated for 6 hours at 37° C., 5% CO2. Following treatment, cells were washed 3× with ice-cold PBS and 115 μl/well ice-cold 1× Assay/Lysis. Buffer with protease inhibitors was added (25 mM HEPES, pH 7.5, 150 mM NaCl, 1% NP-40, 10 mM MgCl2, 1 mM EDTA, 2% Glycerol). Following lysis samples were frozen at −80° C.
Raf-1 RBD (LJIC-1988A1) was diluted to 100 ng/well in PBS and 5 μl/well was spot coated onto MSD high bind SECTOR plates (L15XB). Plates were incubated at room temperature for 1 hour on an orbital shaker. Plates were washed with PBS/0.05% Tween-20 and 50 μl/well of thawed lysate samples were added, followed by 50 μl of 1% MSD Blocker A in PBS/0.05 Tween-20 (R93BA). Plates were incubated for 1 hour on an orbital shaker and washed with PBS/0.05% Tween-20. 25 μl/well of Anti-pan-Ras Antibody (Cell Biolabs 244003) diluted 1:3000 was added in 1% MSD Blocker A solution and plates were incubated for 1 hour on an orbital shaker and washed with PBS/0.05% Tween-20. SULFO-TAG goat anti-mouse secondary antibody (MSD R32AC) was diluted 1:500 in MSD Blocker A solution and added at 25 μL/well. Plates were incubated for 1 hour on an orbital shaker and washed with PBS/0.05% Tween-20. 150 μl/well of Read Buffer T (MSD R92TC) diluted 1:3 in H2O was added and plates were read on a Meso Scale Discovery Sector Imager S600.
KRAS signal was normalized to maximum inhibition and DMSO control values, and IC50 values were generated using a 4 parameter fit of the dose response curve. The decrease in IC50 reflects that the exemplary compound lead to a higher level of accumulation of GDP-bound KRAS G12C than another exemplary compounds at specific timepoint of treatment of cancer cell line.

[1] = target: T1, GDP-loaded KRAS (1-169) G12C, C51S, C80L, C118S (Homo sapiens, UniProt P01116, C118S/C51S/C80L/G12C); assay: Mass Spectrometry Reactivity Assay (MSRA): covalent adduct of compound and KRAS G12C, Percent Modification; format: binding; details: for MSRA (% modification) 5.0 μM 0.017 hr: 5.0 μM compound; for MSRA (% modification) 10 μM 0.50 hr: 10 μM compound
T1 construct: GDP-loaded KRAS (1-169) G12C, C51S, C80L, C118S
Method: Mass Spectrometry Reactivity Assay (MSRA)
Compounds presented in the present invention covalently bind to KRAS G12C using MSRA to detect a covalent adduct of the exemplary compound and KRAS G12C.
GDP-loaded KRAS (1-169) G12C, C51S, C80L, C118S were diluted in the protein assay buffer 25 mM Hepes pH7.5, 200 mM NaCl, 5% glycerol to concentration of 5 μM and 20 μl of protein was transferred into 96-well plate. Initial compound stocks were generated at concentrations 100-fold higher that their desired assay concentrations. See K-Ras(G12C) inhibitors allosterically control GTP affinity and effector interactions; Ostrem J M, Peters U, Sos M L, Wells J A, Shokat K M; Nature. 2013, Nov. 28; 503(7477):548-51.
Exemplary compounds dissolved in DMSO were diluted 100-fold into solution containing 20 μl of 5 μM KRAS protein in the 96-well plate to initiate the reaction. Mosquito (TPP Lab tech) liquid handling robot was used to add compounds to protein solution. Typical final concentration of the compounds was 5 μM or 10 μM. The plates were placed on a shaker for 1 min at RT, sealed and incubated at room temperature for specified time period. 5 μl of reaction mix was added to 10 μl of 0.2% formic acid stop solution and mixed well. Typical end points were 1, 15, 30, and 60 min.
Data were collected using Waters Acquity H-class UPLC system/Xevo G2-XS TOF mass spectrometer. The protein was injected in their liquid phase onto a Bruker Microtrap protein column TR1/15109/03. The following buffers were used to set LC gradient: Buffer A: 0.2% formic acid H2O; B: 0.2% formic acid CAN. The protein was eluted from the column using the following LC Gradient: 0-0.4 min, 10% B to 30% B; 0.4 min-2.4 min, to 90% B, 2.5 min, 10% B, 3 min, 10% B. Initial data analysis was performed using MaxEnt software right after data acquisition.
The standard auto processing function was used to define percentage of unmodified and modified KRAS protein using MexEnt software right after data acquisition. The highest peak was defined as 100% while smaller peak as assigned the number defined by autoprocessing function. The percent of modification corresponding to modified with exemplary compound and unmodified KRAS GDP-loaded KRAS (1-169) G12C, C51S, C80L, C118S were exported to Xcel data analysis software.
The percent of modified protein at the defined concentration of exemplary compound was calculated using the following formula: % mod=Num of modified peak/Sum of modified+unmodified. The resultant value defined as Percent Modification (PM) and an increase in PM reflects that the specific compound is better than other compounds at specified compound concentration at a given time point.

| IC50 (KRAS G12C) | MSRA (% modification) 5.0 μM 0.017 hr [1] | MSRA (% modification) 10 μM 0.50 hr [1] | SMILES |
| --- | --- | --- | --- |
| 0.094 µM | 42% | – | C=CC(=O)N1CCN(c2nc(O[C@@H]3CN(C)C[C@H]3CC)nc3c(Oc4c(Cl)c(F)cc5[nH]ncc45)nccc23)CC1 (racemic) [Example 21I, rac-1-[4-(8-[(5-chloro-6-fluoro-1H-indazol-4-yl)oxy]-2-{[(3S,4R)-4-ethyl-1-methyl-pyrrolidin-3-yl]oxy}pyrido [3,4-d]pyrimidin-4-yl)piperazin-1-yl]prop-2-en-1-one] |
| 0.348 µM | 12% | – | C=CC(=O)N1CCN(c2nc(O[C@@H]3COC[C@H]3N(C)C)nc3c(Oc4c(Cl)c(F)cc5[nH]ncc45)nccc23)CC1 (racemic) [Example 23I, rac-1-[4-(8-[(5-chloro-6-fluoro-1H-indazol-4-yl)oxy]-2-{[(3S,4R)-4-(dimethyl-amino)oxolan-3-yl]oxy}pyrido [3,4-d]pyrimidin-4-yl)piperazin-1-yl]prop-2-en-1-one] |
| – | 20% | – | C=CC(=O)N1CCN(c2nc(O[C@@H]3CN(C)C[C@H]3C)nc3c(Oc4c(Cl)c(F)cc5[nH]ncc45)nccc23)CC1 (racemic) [Example 24I, rac-1-[4-(8-[(5-chloro-6-fluoro-1H-indazol-4-yl)oxy]-2-{[(3S,4R)-1,4-dimethyl-pyrrolidin-3-yl]oxy}pyrido [3,4-d]pyrimidin-4-yl)piperazin-1-yl]prop-2-en-1-one] |
| – | 6% | – | C=CC(=O)N1CCN(c2nc(O[C@H]3CN(C)C[C@H]3C)nc3c(Oc4c(Cl)c(F)cc5[nH]ncc45)nccc23)CC1 (racemic) [Example 25I, rac-1-[4-(8-[(5-chloro-6-fluoro-1H-indazol-4-yl)oxy]-2-{[(3S,4S)-1,4-dimethyl-pyrrolidin-3-yl]oxy}pyrido [3,4-d]pyrimidin-4-yl)piperazin-1-yl]prop-2-en-1-one] |
| 0.195 µM | 35% | – | C=CC(=O)N1CCN(c2nc(O[C@@H]3CN(C)C[C@@H]3OC)nc3c(Oc4c(Cl)c(F)cc5[nH]ncc45)nc(Cl)cc23)CC1 (racemic) [Example 26G, rac-1-[4-(6-chloro-8-[(5-chloro-6-fluoro-1H-indazol-4-yl)oxy]-2-{[(3R,4S)-4-methoxy-1-methylpyrrolidin-3-yl]oxy}pyrido[3,4-d]pyrimidin-4-yl)piperazin-1-yl]prop-2-en-1-one] |
| – | 15% | – | C=CC(=O)N1CCN(c2nc(O[C@@H]3CCN(CCOC)C[C@H]3C)nc3c(Oc4c(Cl)c(F)cc5[nH]ncc45)nccc23)CC1 (racemic) [Example 27I, rac-1-[4-(8-[(5-chloro-6-fluoro-1H-indazol-4-yl)oxy]-2-{[(3R,4R)-1-(2-methoxy-ethyl)-3-methyl-piperidin-4-yl]oxy}pyrido [3,4-d]pyrimidin-4-yl)piperazin-1-yl]prop-2-en-1-one] |
| – | 16% | – | C=CC(=O)N1CCN(c2nc(O[C@@H]3CCN(C)C[C@H]3C)nc3c(Oc4c(Cl)c(F)cc5[nH]ncc45)nccc23)CC1 (racemic) [Example 29I, rac-1-[4-(8-[(5-chloro-6-fluoro-1H-indazol-4-yl)oxy]-2-{[(3R,4R)-1,3-dimethyl-piperidin-4-yl]oxy}pyrido [3,4-d]pyrimidin-4-yl)piperazin-1-yl]prop-2-en-1-one] |
| – | – | 26% | C=CC(=O)N1CCN(c2ncnc3c(Oc4c(Br)ccc5[nH]ncc45)cccc23)CC1 [Example 11C, 1-(4-(8-((5-bromo-1H-indazol-4-yl)oxy)quinazolin-4-yl)piperazin-1-yl)prop-2-en-1-one] |
| – | – | 12% | C=CC(=O)N1CCN(c2ncnc3c(Oc4c(Br)ccc5[nH]ncc45)nccc23)CC1 [Example 15C, 1-(4-{8-[(5-bromo-1H-indazol-4-yl)oxy]pyrido[3,4-d]pyrimidin-4-yl}piperazin-1-yl)prop-2-en-1-one] |
| – | 17% | – | C=CC(=O)N1CCN(c2nc(OC3CN(C)CC34CC4)nc3c(Oc4c(Cl)c(F)cc5[nH]ncc45)nccc23)CC1 (stereo not shown) [Example 26I, 1-(4-{8-[(5-chloro-6-fluoro-1H-indazol-4-yl)oxy]-2-[(5-methyl-5-azaspiro [2.4]heptan-7-yl)oxy]pyrido [3,4-d]pyrimidin-4-yl}piperazin-1-yl)prop-2-en-1-one] |
| – | 16% | – | C=CC(=O)N1CCN(c2nc(O[C@@H]3CN(C)C[C@H]3OC)nc3c(Oc4c(Cl)c(F)cc5[nH]ncc45)nccc23)C[C@@H]1C [Example 37I, 1-[(2S)-4-(8-[(5-chloro-6-fluoro-1H-indazol-4-yl)oxy]-2-{[(3R,4R)-4-methoxy-1-methyl-pyrrolidin-3-yl]oxy}pyrido [3,4-d]pyrimidin-4-yl)-2-methyl-piperazin-1-yl]prop-2-en-1-one] |
| – | 7% | – | C=CC(=O)N1CCN(c2nc(Oc3cc4n(n3)CCN(C)C4)nc3c(Oc4c(Cl)c(F)cc5[nH]ncc45)nccc23)CC1 [Example 45I, 1-(4-{8-[(5-chloro-6-fluoro-1H-indazol-4-yl)oxy]-2-[(5-methyl-4,5,6,7-tetrahydro-pyrazolo [1,5-a]pyrazin-2-yl)oxy]pyrido [3,4-d]pyrimidin-4-yl}piperazin-1-yl)prop-2-en-1-one] |
| – | 14% | – | C=CC(=O)N1CCN(c2nc(Oc3nn(C)c4c3CCN(C)C4)nc3c(Oc4c(Cl)c(F)cc5[nH]ncc45)nccc23)CC1 [Example 47I, 1-(4-{8-[(5-chloro-6-fluoro-1H-indazol-4-yl)oxy]-2-[(1,6-dimethyl-4,5,6,7-tetrahydro-1H-pyrazolo [3,4-c]pyridin-3-yl)oxy]pyrido [3,4-d]pyrimidin-4-yl}piperazin-1-yl)prop-2-en-1-one] |
